Assay results published in patent US7781175B2, “Method of screening compounds which alter the binding properties of GPR39, and homologs thereof, to bile acid” (Takeda Pharmaceutical Company Limited, priority 2004, dated 2010).

Legend:
Format in all cases: cell-based
[1] = system: GPR39-expressed cell line UM-UC-3; assay: IL-8 secretion from GPR39-expressed cell line UM-UC-3, quantified by EIA; conditions: 500 μM, 4 hours
Experimental: Using the GPR39-expressed cell line UM-UC-3 (Dainippon Pharmaceutical), effects by the addition of bile acids as the GPR39 agonist were examined.
On the day before assay, UM-UC-3 was cultured until preconfluent in MINIMUM ESSENTIAL MEDIUM (WITH EARLE'S SALTS, WITH L-GLUTAMINE) (GIBCO BRL) supplemented with 10% FCS and MEM NON-ESSENTIAL AMINO ACIDS (GIBCO BRL), washed with PBS, detached using trypsin, centrifuged for recovery and then suspended in a medium to 3×10^6 cells/ml. After a 100 μl aliquot was dispensed into each well of a 96-well plate (Falcon), followed by incubation overnight in a CO2 incubator.
On the assay day, after the medium for the cells prepared on the preceding day was removed, the cells were washed with MEM NON-ESSENTIAL AMINO ACIDS-containing MINIMUM ESSENTIAL MEDIUM (WITH EARLE'S SALTS, WITH L-GLUTAMINE). A […] was further charged in each well, followed by incubation […] at 37° C. in a CO2 incubator. Subsequently, a 100 μl aliquot of MEM NON-ESSENTIAL AMINO ACIDS-containing MINIMUM ESSENTIAL MEDIUM (WITH EARLE'S SALTS, WITH L-GLUTAMINE), to which various test samples were added, was dispensed into each well, followed by incubation […]. After the culture supernatant was recovered, IL-8 contained in each sample was quantified by EIA (Amersham).

[2] = system: pAKKO-111H transfected cells (control); assay: SRE-luciferase reporter assay in pAKKO-111H transfected HeLa cells for control; conditions: for Luciferase Activity (cps), pAKKO-111H (control): pAKKO-111H transfected HeLa cells, 4 hours, 0 μM baseline 2042
Experimental: (§1) First, cDNA encoding G protein-coupled receptor protein, the GPR39 (SEQ ID NO: 1) prepared by the method publicly known was inserted into pAKKO-111H (the same plasmid vector as pAKKO-1.111H described in Biochem. Biophys. Acta, Hinuma, S. et al., 1219, 251-259, 1994). Using the expression plasmid for animal cells thus obtained, Escherichia coli JM109 was transfected and the colonies obtained were isolated and cultured. Thereafter, large scale plasmid preparation was carried out using QIAGEN Plasmid Maxi Kit (Qiagen). Furthermore, the pSRE-Luc reporter plasmid (Invitrogen) ligated with a luciferase gene as a reporter at the downstream of serum response element (SRE), and expression vector plasmids for human GαoA, human Gβ1 and human Gγ2, which are a kind of G proteins, were prepared in a similar manner.
(§2) HeLa cells as host cells for transfecting the G protein-coupled receptor protein expression plasmid and the reporter plasmid were plated on a 384-well assay plate (COSTAR 3704) at 4000 cells/well in a culture volume of 25 μl, followed by incubation overnight. The medium used was DMEM (Invitrogen) supplemented with 10% fetal calf serum and 1% MEM non-essential amino acids solution (DMEM/NEAA).
(§3) Each plasmid was added to and mixed with 240 μl of Opti-MEM-I (Invitrogen) in a proportion of 1 μl of the protein expression plasmid or, for comparison, expression vector pAKKO-111H without DNA encoding the receptor protein in place of an expression plasmid of the receptor, 9 μl of the reporter plasmid and 1 μl each of the G protein-coupled receptor protein expression plasmid GαoA, Gβ1 or Gγ2. […]
(§4) The HeLa cells prepared in EXAMPLE 1 were washed twice with fetal calf serum-free DMEM/NEAA (assay medium) and then cultured in the same assay medium at 37° C. under 5% CO2 for 2 hours. […] After the cells were lysed and thoroughly mixed with the substrate, the chemiluminescence level corresponding to the expression induction level of the reporter gene in each well was measured on the plate reader (EnVision™, Perkin-Elmer).

[3] = target: T1, GPR39 (SEQ ID NO: 1) (Homo sapiens, UniProt O43194); assay: SRE-luciferase reporter assay for ligand activity in GPR39-expressed HeLa cells; conditions: for Increased Luciferase Activity (cps) by TLCA in GPR39-Expressed Cells: GPR39-expressed HeLa cells, 4 hours, 0 μM baseline 3574
T1 construct: expressed in transfected cells; host or cells: HeLa cells, transient transfection (vector pAKKO-111H)
T1 sequence (O43194 1-453): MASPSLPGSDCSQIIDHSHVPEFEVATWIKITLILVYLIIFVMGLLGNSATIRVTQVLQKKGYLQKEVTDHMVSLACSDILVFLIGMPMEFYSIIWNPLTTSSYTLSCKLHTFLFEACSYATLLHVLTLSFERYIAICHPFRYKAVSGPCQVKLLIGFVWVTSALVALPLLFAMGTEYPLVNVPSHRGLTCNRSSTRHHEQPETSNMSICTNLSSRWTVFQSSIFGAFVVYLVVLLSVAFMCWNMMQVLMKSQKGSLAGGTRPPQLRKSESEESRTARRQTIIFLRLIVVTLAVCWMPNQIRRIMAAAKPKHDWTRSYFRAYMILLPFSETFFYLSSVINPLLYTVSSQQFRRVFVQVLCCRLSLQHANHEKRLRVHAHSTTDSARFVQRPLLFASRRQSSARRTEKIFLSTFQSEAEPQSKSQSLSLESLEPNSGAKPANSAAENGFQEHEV
Experimental: as §1, §2, §3, §4

With `C[C@H](CCC(=O)NCCS(=O)(=O)O)[C@H]1CC[C@H]2[C@@H]3CC[C@@H]4C[C@H](O)CC[C@]4(C)[C@H]3C[C@H](O)[C@]12C` [taurine conjugate of deoxycholic acid] the “IL-8 accumulated in culture supernatant compared to absence of the conjugate” value [1] was “approximately twice as much”.
`C[C@H](CCC(=O)NCCS(=O)(=O)[O-])[C@H]1CC[C@H]2[C@@H]3CC[C@@H]4C[C@H](O)CC[C@]4(C)[C@H]3CC[C@]12C.[Na+]` [TLCA, sodium taurolithocholate] was tested, and the “luciferase activity in the pAKKO-111H transfected cells for control (in words)” value ([2]; TLCA added) was “any marked increase of the activity was not detected”, the “Luciferase Activity (cps), pAKKO-111H (control)” value ([2]; TLCA level 5 μM) was 2214 cps and the “Luciferase Activity (cps), pAKKO-111H (control)” value ([2]; TLCA level 20 μM) was 2542 cps. For the same compound, the “luciferase activity in the GPR39-expressed cells (in words)” value ([3]; TLCA 5 μM or 20 μM) was “increased luciferase activity”, the “Increased Luciferase Activity (cps) by TLCA in GPR39-Expressed Cells” value ([3]; TLCA level 5 μM) was 5977 cps and the “Increased Luciferase Activity (cps) by TLCA in GPR39-Expressed Cells” value ([3]; TLCA level 20 μM) was 8114 cps.
